Experimental data: US11273152B2, “TRPV2 antagonists” (Instituto de Medicina Molecular João Lobo Antunes, priority 2017, dated 2022)
Entries after “also recorded” stand apart in the source; their conditions may differ.

Assays:
[1] = tested on: U251 cells; assay: Viability of U251 cells transiently over-expressing hTRPV2; format: cell-based, human; details: 5 μM PL, 24 hours, p=0.0002, n=9, listed as PL
Description: 50,000 U251 cells were seeded in each well of a 24 well plate. The next day cells were transfected with hTRPV2-RFP plasmid. After incubating for 48 hours the media was changed and PL was added at 5 and 10 μM. 24 hours later cell viability was assessed using CellTitre-Blue (Promega). Transfection efficiency was assessed using flow cytometry.
Cells were harvested from plates by washing with media (HEK293) or TrypLE express (Gibco). The media was removed after centrifugation and the cells were washed twice with binding buffer before being incubated for 30 minutes at room temperature with Annexin V-APC (eBiosciences, 1:100) and 7-AAD (Pharmigen, 1:50). Samples were diluted with binding buffer and analyzed by flow cytometry using BD LSRFortessa X-20 with FACS Diva software. Samples with single stains were used as controls.

[2] = biological target: TRPC5 (Homo sapiens, UniProt Q9UL62); assay: Fluorescence cell-based assay, TRPC5; details: membrane potential dye, duplicate
Sequence of TRPC5 (Q9UL62 whole entry): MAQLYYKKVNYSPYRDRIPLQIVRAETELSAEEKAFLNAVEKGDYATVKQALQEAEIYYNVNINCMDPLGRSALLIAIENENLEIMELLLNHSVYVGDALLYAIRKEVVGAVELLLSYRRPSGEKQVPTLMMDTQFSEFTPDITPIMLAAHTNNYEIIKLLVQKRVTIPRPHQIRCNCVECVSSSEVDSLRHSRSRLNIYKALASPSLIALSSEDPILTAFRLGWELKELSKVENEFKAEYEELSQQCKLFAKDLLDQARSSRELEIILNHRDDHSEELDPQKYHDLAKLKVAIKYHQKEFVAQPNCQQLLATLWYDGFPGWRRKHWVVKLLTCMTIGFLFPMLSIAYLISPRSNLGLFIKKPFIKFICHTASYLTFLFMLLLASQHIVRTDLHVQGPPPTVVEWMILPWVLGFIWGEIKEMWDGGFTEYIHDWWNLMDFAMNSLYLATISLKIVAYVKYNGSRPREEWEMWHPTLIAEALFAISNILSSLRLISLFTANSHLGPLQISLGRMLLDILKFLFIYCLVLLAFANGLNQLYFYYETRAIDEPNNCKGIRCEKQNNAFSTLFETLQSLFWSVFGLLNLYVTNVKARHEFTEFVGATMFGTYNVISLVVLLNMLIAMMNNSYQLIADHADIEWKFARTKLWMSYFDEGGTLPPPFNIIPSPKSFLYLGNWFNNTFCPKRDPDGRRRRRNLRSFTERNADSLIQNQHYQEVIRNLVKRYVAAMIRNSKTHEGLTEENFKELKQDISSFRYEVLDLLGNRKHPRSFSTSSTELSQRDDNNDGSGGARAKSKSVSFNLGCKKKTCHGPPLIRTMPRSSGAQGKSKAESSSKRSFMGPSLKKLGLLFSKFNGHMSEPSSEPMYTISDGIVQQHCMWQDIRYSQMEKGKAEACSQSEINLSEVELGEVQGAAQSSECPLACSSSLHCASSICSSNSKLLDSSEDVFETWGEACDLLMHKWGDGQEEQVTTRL
Description: (§1) The assays were performed at SB Discovery (Glasgow, UK) on a fee-for-service basis. Human TRP cells were trypsinised, counted and seeded in black, clear-bottomed 96 well plates at a density of 50,000 cells per well in 100 μL volume and incubated overnight. Next day, the cells were loaded with calcium 5 dye or membrane potential dye. TRPV1-5, TRPA1, TRPM2, TRPM3, and TRPM8 were tested using the calcium 5 dye. TRPC1, TRPC3-7, and TRPM4-5 were tested using the membrane potential dye. Both dye solutions were made up in HEPES buffered Hank's balanced salt solution (HBSS). Dye solution (90 μL) was added to the wells and incubated at 37° C. for 1 hour. Test compounds and standard inhibitors (10 μL) were then added to the wells and incubated at room temperature for 10 minutes. The plates were then placed in the flexstation and fluorescence monitored every 1.52 seconds. After 20 seconds agonist was added and the fluorescence monitored for 2 minutes at 485 nm/525 nm and 530 nm/565 nm, Ex/Em, for the calcium 5 dye and the membrane potential dye respectively. Controls-TRPV1: capsazepine; TRPV2: tranilast; TRPV3: ruthenium red; TRPV4: ruthenium red; TRPV5: Gd^3+; TRPA1, ruthenium red; TRPC1: Gd^3+; TRPC3: Pyr3; TRPC4: ML 204; TRPC5: ML 204; TRPC6: ML 204; TRPC7: SKF 96365; TRPM2: 2-APB; TRPM3: Mef acid; TRPM4: clotrimazole; TRPM5: TPPO; TRPM8: 2-APB. […]

[3] = tested on: rabbit TRPV2 orthologue; assay: Isothermal titration calorimetry, rabbit TRPV2; format: binding; details: rabbit TRPV2 constructs; 100 μM
[4] = Dynamic light scattering, colloidal aggregation; format: physicochemical; details: water, 25° C.
Description: Dynamic light scattering (Zetasizer Nano S, Malvern, UK) was used to determine compound colloidal aggregation. The particle sizes were measured at 25° C. Water solubility was measured as described elsewhere with successive measurements within 60 minutes.^35 A 100 mM stock solution of piperlongumine was prepared in DMSO, following dilution to deionized water to obtain an analyte solution of 100 μM (0.1% DMSO). Colloidal aggregation was measured through sequential dilutions.

[5] = tested on: human, ligand-gated TRP channels; assay: TRP channel panel screen, activation; format: cell-based; details: TRPV, TRPC, TRPM, TRPA panel
[6] = biological target: TRPA1 (Homo sapiens, UniProt O75762); assay: Fluorescence cell-based assay, TRPA1; details: calcium 5 dye, spread in log units, duplicate
Sequence of TRPA1 (O75762 whole entry): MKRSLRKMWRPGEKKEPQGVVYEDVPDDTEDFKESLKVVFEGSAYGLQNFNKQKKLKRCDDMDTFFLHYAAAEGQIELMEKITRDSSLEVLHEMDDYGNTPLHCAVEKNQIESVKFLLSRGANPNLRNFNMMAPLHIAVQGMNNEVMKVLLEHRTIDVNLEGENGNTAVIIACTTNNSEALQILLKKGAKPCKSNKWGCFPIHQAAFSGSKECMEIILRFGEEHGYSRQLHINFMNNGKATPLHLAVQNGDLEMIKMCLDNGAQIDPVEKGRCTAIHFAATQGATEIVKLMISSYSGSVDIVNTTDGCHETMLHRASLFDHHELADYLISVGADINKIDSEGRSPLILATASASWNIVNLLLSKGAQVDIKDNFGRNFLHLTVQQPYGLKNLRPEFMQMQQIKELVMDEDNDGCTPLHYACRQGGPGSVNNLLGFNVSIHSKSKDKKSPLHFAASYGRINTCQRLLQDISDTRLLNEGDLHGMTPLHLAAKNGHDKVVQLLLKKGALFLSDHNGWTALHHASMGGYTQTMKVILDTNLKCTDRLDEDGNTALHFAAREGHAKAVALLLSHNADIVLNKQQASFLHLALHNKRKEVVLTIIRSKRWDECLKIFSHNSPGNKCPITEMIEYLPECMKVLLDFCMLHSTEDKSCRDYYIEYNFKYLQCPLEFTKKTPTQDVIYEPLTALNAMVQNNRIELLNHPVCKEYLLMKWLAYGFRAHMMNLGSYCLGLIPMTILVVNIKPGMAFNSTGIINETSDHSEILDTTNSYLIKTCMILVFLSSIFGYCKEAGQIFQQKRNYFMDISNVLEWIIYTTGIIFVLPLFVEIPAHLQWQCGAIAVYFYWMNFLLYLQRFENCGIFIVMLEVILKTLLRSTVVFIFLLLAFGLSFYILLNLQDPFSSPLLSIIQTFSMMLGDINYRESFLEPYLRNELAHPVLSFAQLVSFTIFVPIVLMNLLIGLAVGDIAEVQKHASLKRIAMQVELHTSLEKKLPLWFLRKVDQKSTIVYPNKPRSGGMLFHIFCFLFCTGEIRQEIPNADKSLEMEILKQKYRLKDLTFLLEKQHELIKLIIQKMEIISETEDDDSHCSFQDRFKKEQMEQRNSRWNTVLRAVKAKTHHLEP
Description: as §1

[7] = biological target: T1, TRPV2 (Homo sapiens, UniProt Q9Y5S1); assay: Intracellular calcium imaging (Fura-2 AM) in HepG2 cells; format: cell-based; details: 1 at 5 μM
T1 sequence (Q9Y5S1 1-764): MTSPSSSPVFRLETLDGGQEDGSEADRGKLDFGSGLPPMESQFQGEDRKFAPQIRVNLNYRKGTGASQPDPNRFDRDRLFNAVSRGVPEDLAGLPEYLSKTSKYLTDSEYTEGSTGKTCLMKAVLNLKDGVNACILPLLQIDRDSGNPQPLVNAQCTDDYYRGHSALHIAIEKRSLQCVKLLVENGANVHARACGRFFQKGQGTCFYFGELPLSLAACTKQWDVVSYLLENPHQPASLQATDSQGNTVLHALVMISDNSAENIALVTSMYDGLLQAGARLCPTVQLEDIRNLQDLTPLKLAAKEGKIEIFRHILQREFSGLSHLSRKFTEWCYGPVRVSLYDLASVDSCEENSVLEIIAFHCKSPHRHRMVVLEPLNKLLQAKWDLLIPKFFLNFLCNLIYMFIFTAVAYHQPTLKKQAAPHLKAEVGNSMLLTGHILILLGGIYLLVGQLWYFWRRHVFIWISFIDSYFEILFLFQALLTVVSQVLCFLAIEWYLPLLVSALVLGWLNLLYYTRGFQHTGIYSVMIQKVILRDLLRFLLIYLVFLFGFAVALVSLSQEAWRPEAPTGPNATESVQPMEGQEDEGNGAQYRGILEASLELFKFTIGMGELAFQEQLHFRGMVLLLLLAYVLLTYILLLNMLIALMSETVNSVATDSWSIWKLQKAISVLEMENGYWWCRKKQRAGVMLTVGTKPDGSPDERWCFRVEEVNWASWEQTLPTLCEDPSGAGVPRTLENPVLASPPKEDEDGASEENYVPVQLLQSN
Description: Cells (ATCC) were grown to 50% confluency in DMEM (Gibco) supplemented with 10% FBS (Gibco), GlutaMax (Gibco), MEM and NEAA (Gibco), 4.5 g/L glucose and 0.11 g/L sodium pyruvate. Cells were seeded in μ-ibidi 8 well plates and transfected with TRPV2-RFP^34 (kindly gifted by Prof. Itaru Kojimu Gunma University, Japan). After 48 h of incubation, cells were subjected to calcium imaging. Intracellular calcium measurements were performed with Fura-2 AM (Life Technologies) and modified from previously described studies.^12 In short, 1 hour before the measurement, cells were loaded with 5 μM Fura-2-AM for 45 minutes. Cell medium was replaced by Tyrod's solution (119 mM NaCl, 5 mM KCl, 2 mM CaCl2, 2 mM MgCl2, 6 g/L glucose, 25 mM HEPES pH 7.4). Simultaneously, the respective treatment was added to the cells (final concentration of 1% DMSO (control), 5 μM piperlongumine and 10 μM tranilast) and cells were allowed to re-adjustment for 15 minutes. Fura-2 AM emissions from 340 nm and 380 nm excitation were recorded for 1 minute before TRPV2 was activated by addition of 4 μM or 20 μM cannabidiol (CBD). Image analysis was done using the MetaFluor Analyst software. The statistical analysis was performed with astatsa.com. After calcium imaging acquisition, the cells were immediately fixed with 4% paraformaldehyde for 15 min. […]

[8] = tested on: sperm whale TRPV2 orthologue; assay: Isothermal titration calorimetry, sperm whale TRPV2; format: binding; details: sperm whale TRPV2 constructs; 100 μM

## COc1cc(/C=C/C(=O)N2CCC=CC2=O)cc(OC)c1OC [Compound 1, piperlongumine]
[1]
  Viability of hTRPV2-transfected cells vs non-transfected controls: reduced viability compared to the non-transfected controls; also recorded: increases PL toxicity
[2]
  IC50: > 100 µM
[3]
  Binding by isothermal titration calorimetry: did not bind
[4]
  Colloidal aggregation (dynamic light scattering): absence of colloidal aggregate-induced inhibition
[5]
  Activation of the assayed TRP channels: did not activate any of the assayed channels
[6]
  IC50: 39 ± 0.15 µM
[7]; CBD 4 μM
  Inhibition of CBD evoked calcium influx in HepG2 cells: No statistically significant difference is observed between all samples
[7]; CBD 20 μM, 120 s post stimulation
  Inhibition of CBD evoked calcium influx in HepG2 cells: significantly inhibited; also recorded: significant difference between control and 1 (p<0.01)
[8]
  Binding by isothermal titration calorimetry: did not bind
